# Source: patent US6479435B1, “Diaryl ethers and processes for their preparation and herbicidal and desiccant compositions containing them” (ISK Americas Incorporated, priority 1997, dated 2002)
# How the values were obtained:
# Format in all cases: in vivo
# [1] = system: common ragweed (Ambrosia artemisiifolia L., AMBEL); experiment: Post-emerge greenhouse herbicide test, phytotoxicity rating; settings: 14 days after application
# In short: (§1)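 Scores use a 0 (no damage) to 100 (complete kill) scale, taken 14 days after a foliar spray. Acetone solutions with 0.25% v/v non-ionic surfactant were applied by track sprayer at 187 l/ha and 63-1000 g ai/ha to bottom-watered 2-3 leaf plants.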
# [2] = system: soybean (Glycine max L., var. Pella 86, SOY); experiment: Pre-emerge greenhouse test, crop damage rating; settings: 14 days after application, rating scale 0-100
# In short: (§2)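 Visual 0–100 injury rating (100 = all plants dead) taken 14 days after treatment. Rates of 125–1000 g ai/ha in acetone, 187 l/ha, were sprayed onto soil one day post-sowing; pots were surface-watered to incorporate, then bottom-watered.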
# [3] = system: redroot pigweed (Amaranthus retroflexus, AMARE); experiment: Pre-emerge greenhouse herbicide test, phytotoxicity rating; settings: 14 days after application, rating scale 0-100
# In short: as §2
# [4] = system: ivyleaf morningglory (Ipomoea hederacea, IPOHE); experiment: as above; settings: 14 days after application, rating scale 0-100
# In short: as §2
# [5] = system: barnyardgrass (Echinochloa crusgalli, ECHCG); experiment: as above; settings: 14 days after application, rating scale 0-100
# In short: as §2
# [6] = system: velvetleaf (Abutilon theophrasti, ABUTH); experiment: as above; settings: 14 days after application, rating scale 0-100
# In short: as §2
# [7] = system: large crabgrass (Digitaria sanguinalis, DIGSA); experiment: as above; settings: 14 days after application, rating scale 0-100
# In short: as §2
# [8] = system: Johnsongrass (Sorghum halepense, SORHA); experiment: as above; settings: 14 days after application, rating scale 0-100
# In short: as §2
# [9] = system: sicklepod (Cassia obtusifolia, CASOB); experiment: as above; settings: 14 days after application, rating scale 0-100
# In short: as §2
# [10] = system: common ragweed (Ambrosia artemisiifolia L., AMBEL); experiment: as above; settings: 14 days after application, rating scale 0-100
# In short: as §2
# [11] = system: lambsquarters (Chenopodium album, CHEAL); experiment: as above; settings: 14 days after application, rating scale 0-100
# In short: as §2
# [12] = system: green foxtail (Setaria viridis, SETVI); experiment: as above; settings: 14 days after application, rating scale 0-100
# In short: as §2
# [13] = system: soybean (Glycine max L., var. Pella 86, SOY); experiment: Post-emerge greenhouse test, crop damage rating; settings: 14 days after application
# In short: as §1
# [14] = system: field corn (Zea mays L., var. Dekalb 535, CORN); experiment: Post-emerge greenhouse test, crop damage rating; settings: 14 days after application
# In short: as §1
# [15] = system: upland rice (Oryza sp., var.Tebonnet, RICE); experiment: Post-emerge greenhouse test, crop damage rating; settings: 14 days after application
# In short: as §1
# [16] = system: field corn (Zea mays L., var. Dekalb 535, CORN); experiment: Pre-emerge greenhouse test, crop damage rating; settings: 14 days after application, rating scale 0-100
# In short: as §2
# [17] = system: upland rice (Oryza sp., var.Tebonnet, RICE); experiment: Pre-emerge greenhouse test, crop damage rating; settings: 14 days after application, rating scale 0-100
# In short: as §2
# [18] = system: redroot pigweed (Amaranthus retroflexus, AMARE); experiment: Post-emerge greenhouse herbicide test, phytotoxicity rating; settings: 14 days after application
# In short: as §1
# [19] = system: ivyleaf morningglory (Ipomoea hederacea, IPOHE); experiment: as above; settings: 14 days after application
# In short: as §1
# [20] = system: barnyardgrass (Echinochloa crusgalli, ECHCG); experiment: as above; settings: 14 days after application
# In short: as §1
# [21] = system: velvetleaf (Abutilon theophrasti, ABUTH); experiment: as above; settings: 14 days after application
# In short: as §1
# [22] = system: large crabgrass (Digitaria sanguinalis, DIGSA); experiment: as above; settings: 14 days after application
# In short: as §1
# [23] = system: Johnsongrass (Sorghum halepense, SORHA); experiment: as above; settings: 14 days after application
# In short: as §1
# [24] = system: lambsquarters (Chenopodium album, CHEAL); experiment: as above; settings: 14 days after application
# In short: as §1
# [25] = system: green foxtail (Setaria viridis, SETVI); experiment: as above; settings: 14 days after application
# In short: as §1
compound,measurement,setting,value
O=c1n(CCCF)nnn1-c1cc(Oc2ncccc2C(F)(F)F)c(Cl)cc1Cl [Compound 6-7],AMBEL phytotoxicity rating (0-100),[1]; 63 g al/ha,0
same,AMBEL phytotoxicity rating (0-100),[1]; 500 g al/ha,30
same,crop damage rating SOY,[2]; 125 g ai/ha,80
same,crop damage rating SOY,[2]; 500 g ai/ha,90
same,phytotoxicity rating AMARE,[3]; 500 g ai/ha,100
same,phytotoxicity rating IPOHE,[4]; 125 g ai/ha,0
same,phytotoxicity rating IPOHE,[4]; 500 g ai/ha,30
same,phytotoxicity rating ECHCG,[5]; 125 g ai/ha,0
same,phytotoxicity rating ECHCG,[5]; 500 g ai/ha,50
same,phytotoxicity rating ABUTH,[6]; 125 g ai/ha,0
same,phytotoxicity rating ABUTH,[6]; 500 g ai/ha,20
same,phytotoxicity rating DIGSA,[7]; 125 g ai/ha,40
same,phytotoxicity rating DIGSA,[7]; 500 g ai/ha,70
same,phytotoxicity rating SORHA,[8]; 125 g ai/ha,20
same,phytotoxicity rating SORHA,[8]; 500 g ai/ha,40
same,phytotoxicity rating CASOB,[9]; 125 g ai/ha,0
same,phytotoxicity rating CASOB,[9]; 500 g ai/ha,60
same,phytotoxicity rating AMBEL,[10]; 125 g ai/ha,30
same,phytotoxicity rating AMBEL,[10]; 500 g ai/ha,0
same,phytotoxicity rating CHEAL,[11]; 125 g ai/ha,80
same,phytotoxicity rating CHEAL,[11]; 500 g ai/ha,90
same,phytotoxicity rating SETVI,[12]; 125 g ai/ha,80
same,phytotoxicity rating SETVI,[12]; 500 g ai/ha,100
same,SOY crop damage rating (0-100),[13]; 63 g al/ha,0
same,SOY crop damage rating (0-100),[13]; 500 g al/ha,30
same,CORN crop damage rating (0-100),[14]; 63 g al/ha,0
same,CORN crop damage rating (0-100),[14]; 500 g al/ha,10
same,RICE crop damage rating (0-100),[15]; 63 g al/ha,0
same,RICE crop damage rating (0-100),[15]; 500 g al/ha,50
same,crop damage rating CORN,[16]; 125 g ai/ha,0
same,crop damage rating CORN,[16]; 500 g ai/ha,30
same,crop damage rating RICE,[17]; 125 g ai/ha,0
same,crop damage rating RICE,[17]; 500 g ai/ha,40
same,AMARE phytotoxicity rating (0-100),[18]; 63 g al/ha,70
same,AMARE phytotoxicity rating (0-100),[18]; 500 g al/ha,80
same,IPOHE phytotoxicity rating (0-100),[19]; 63 g al/ha,0
same,IPOHE phytotoxicity rating (0-100),[19]; 500 g al/ha,50
same,ECHCG phytotoxicity rating (0-100),[20]; 63 g al/ha,0
same,ECHCG phytotoxicity rating (0-100),[20]; 500 g al/ha,50
same,ABUTH phytotoxicity rating (0-100),[21]; 63 g al/ha,0
same,ABUTH phytotoxicity rating (0-100),[21]; 500 g al/ha,70
same,DIGSA phytotoxicity rating (0-100),[22]; 63 g al/ha,0
same,DIGSA phytotoxicity rating (0-100),[22]; 500 g al/ha,10
same,SORHA phytotoxicity rating (0-100),[23]; 63 g al/ha,0
same,SORHA phytotoxicity rating (0-100),[23]; 500 g al/ha,30
same,CHEAL phytotoxicity rating (0-100),[24]; 63 g al/ha,50
same,CHEAL phytotoxicity rating (0-100),[24]; 500 g al/ha,80
same,SETVI phytotoxicity rating (0-100),[25]; 63 g al/ha,20
same,SETVI phytotoxicity rating (0-100),[25]; 500 g al/ha,30
O=c1n(CCCF)nnn1-c1cc(Oc2ncccn2)c(Cl)cc1Cl [Compound 6-14],AMBEL phytotoxicity rating (0-100),[1]; 63 g al/ha,0
same,AMBEL phytotoxicity rating (0-100),[1]; 500 g al/ha,50
same,crop damage rating SOY,[2]; 125 g ai/ha,10
same,crop damage rating SOY,[2]; 500 g ai/ha,80
same,phytotoxicity rating AMARE,[3]; 125 g ai/ha,100
same,phytotoxicity rating AMARE,[3]; 500 g ai/ha,100
same,phytotoxicity rating IPOHE,[4]; 125 g ai/ha,60
same,phytotoxicity rating IPOHE,[4]; 500 g ai/ha,95
same,phytotoxicity rating ECHCG,[5]; 125 g ai/ha,60
same,phytotoxicity rating ECHCG,[5]; 500 g ai/ha,99
same,phytotoxicity rating ABUTH,[6]; 125 g ai/ha,100
same,phytotoxicity rating ABUTH,[6]; 500 g ai/ha,100
same,phytotoxicity rating DIGSA,[7]; 125 g ai/ha,90
same,phytotoxicity rating DIGSA,[7]; 500 g ai/ha,100
same,phytotoxicity rating SORHA,[8]; 125 g ai/ha,80
same,phytotoxicity rating SORHA,[8]; 500 g ai/ha,100
same,phytotoxicity rating CASOB,[9]; 125 g ai/ha,60
same,phytotoxicity rating CASOB,[9]; 500 g ai/ha,90
same,phytotoxicity rating AMBEL,[10]; 125 g ai/ha,20
same,phytotoxicity rating AMBEL,[10]; 500 g ai/ha,95
same,phytotoxicity rating CHEAL,[11]; 125 g ai/ha,100
same,phytotoxicity rating CHEAL,[11]; 500 g ai/ha,100
same,phytotoxicity rating SETVI,[12]; 125 g ai/ha,100
same,phytotoxicity rating SETVI,[12]; 500 g ai/ha,100
same,SOY crop damage rating (0-100),[13]; 63 g al/ha,50
same,SOY crop damage rating (0-100),[13]; 500 g al/ha,90
same,CORN crop damage rating (0-100),[14]; 63 g al/ha,0
same,CORN crop damage rating (0-100),[14]; 500 g al/ha,20
same,RICE crop damage rating (0-100),[15]; 63 g al/ha,20
same,RICE crop damage rating (0-100),[15]; 500 g al/ha,50
same,crop damage rating CORN,[16]; 125 g ai/ha,20
same,crop damage rating CORN,[16]; 500 g ai/ha,40
same,crop damage rating RICE,[17]; 125 g ai/ha,30
same,crop damage rating RICE,[17]; 500 g ai/ha,80
same,AMARE phytotoxicity rating (0-100),[18]; 63 g al/ha,20
same,AMARE phytotoxicity rating (0-100),[18]; 500 g al/ha,100
same,IPOHE phytotoxicity rating (0-100),[19]; 63 g al/ha,50
same,IPOHE phytotoxicity rating (0-100),[19]; 500 g al/ha,100
same,ECHCG phytotoxicity rating (0-100),[20]; 63 g al/ha,0
same,ECHCG phytotoxicity rating (0-100),[20]; 500 g al/ha,60
same,ABUTH phytotoxicity rating (0-100),[21]; 63 g al/ha,70
same,ABUTH phytotoxicity rating (0-100),[21]; 500 g al/ha,100
same,DIGSA phytotoxicity rating (0-100),[22]; 63 g al/ha,0
same,DIGSA phytotoxicity rating (0-100),[22]; 500 g al/ha,30
same,SORHA phytotoxicity rating (0-100),[23]; 63 g al/ha,30
same,SORHA phytotoxicity rating (0-100),[23]; 500 g al/ha,90
same,CHEAL phytotoxicity rating (0-100),[24]; 63 g al/ha,70
same,CHEAL phytotoxicity rating (0-100),[24]; 500 g al/ha,95
same,SETVI phytotoxicity rating (0-100),[25]; 63 g al/ha,0
same,SETVI phytotoxicity rating (0-100),[25]; 500 g al/ha,70
